How the values were obtained:
adenosine A2B receptor = adenosine A2B receptor (Homo sapiens (Human), UniProt P29275); experiment: Adenosine receptor activity assay (Table 1), A2B activity; format: biochemical; conditions: for Ratio: A2A activity to A2B activity (A2A/A2B); for IC50: read-out: Ave A2B cAMP IC50
adenosine A2A receptor = adenosine A2A receptor (Homo sapiens (Human), UniProt P29274); experiment: Adenosine receptor activity assay (Table 1), A2A activity; format: biochemical; conditions: read-out: Ave A2A cAMP IC50
adenosine A3 receptor = adenosine A3 receptor (Homo sapiens (Human), UniProt P0DMS8); experiment: Adenosine receptor activity assay (Table 1), A3 cAMP; format: cell-based
adenosine A1 receptor = adenosine A1 receptor (Homo sapiens (Human), UniProt P30542); experiment: Adenosine receptor activity assay (Table 1), A1 cAMP; format: cell-based
Chain of adenosine A1 receptor (P30542 whole entry): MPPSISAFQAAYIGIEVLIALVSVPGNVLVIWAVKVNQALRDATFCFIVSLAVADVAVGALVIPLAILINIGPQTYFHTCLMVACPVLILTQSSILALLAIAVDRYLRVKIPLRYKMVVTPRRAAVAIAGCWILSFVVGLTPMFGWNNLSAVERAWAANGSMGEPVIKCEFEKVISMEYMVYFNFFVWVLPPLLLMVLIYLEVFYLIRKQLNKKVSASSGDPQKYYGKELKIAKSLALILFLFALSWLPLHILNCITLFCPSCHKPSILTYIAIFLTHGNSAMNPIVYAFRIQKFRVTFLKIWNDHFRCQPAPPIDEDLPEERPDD

Chain of adenosine A2A receptor (P29274 whole entry): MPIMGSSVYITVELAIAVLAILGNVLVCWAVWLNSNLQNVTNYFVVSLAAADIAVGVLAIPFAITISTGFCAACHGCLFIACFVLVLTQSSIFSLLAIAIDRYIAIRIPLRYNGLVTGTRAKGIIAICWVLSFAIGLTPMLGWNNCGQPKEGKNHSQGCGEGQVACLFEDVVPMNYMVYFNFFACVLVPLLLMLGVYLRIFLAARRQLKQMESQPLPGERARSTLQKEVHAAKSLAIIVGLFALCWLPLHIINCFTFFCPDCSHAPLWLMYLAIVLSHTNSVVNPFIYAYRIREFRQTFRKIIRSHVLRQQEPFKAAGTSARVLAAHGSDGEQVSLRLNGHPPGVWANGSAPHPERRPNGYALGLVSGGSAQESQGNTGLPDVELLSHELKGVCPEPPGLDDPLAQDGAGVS
Chain of adenosine A3 receptor (P0DMS8 whole entry): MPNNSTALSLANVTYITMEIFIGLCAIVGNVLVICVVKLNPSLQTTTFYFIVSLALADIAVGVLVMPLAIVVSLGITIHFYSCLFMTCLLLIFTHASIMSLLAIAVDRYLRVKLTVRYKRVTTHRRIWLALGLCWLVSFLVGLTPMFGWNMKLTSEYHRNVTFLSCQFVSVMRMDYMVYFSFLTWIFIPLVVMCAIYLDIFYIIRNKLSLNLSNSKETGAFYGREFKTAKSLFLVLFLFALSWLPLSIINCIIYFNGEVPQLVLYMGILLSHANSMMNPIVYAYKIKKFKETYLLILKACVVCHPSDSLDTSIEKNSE
Chain of adenosine A2B receptor (P29275 whole entry): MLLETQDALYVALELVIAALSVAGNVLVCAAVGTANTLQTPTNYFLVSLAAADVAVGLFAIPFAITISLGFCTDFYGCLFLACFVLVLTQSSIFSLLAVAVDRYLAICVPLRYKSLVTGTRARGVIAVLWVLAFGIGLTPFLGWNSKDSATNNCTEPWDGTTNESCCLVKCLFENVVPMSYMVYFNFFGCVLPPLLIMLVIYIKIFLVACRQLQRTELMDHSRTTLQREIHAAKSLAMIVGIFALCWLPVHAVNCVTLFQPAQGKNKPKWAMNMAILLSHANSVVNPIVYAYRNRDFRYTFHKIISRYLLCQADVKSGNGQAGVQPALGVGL

Structure (SMILES)	Ratio (adenosine A2B receptor)	IC50 (adenosine A2B receptor) [nM]	IC50 (adenosine A2A receptor) [nM]	IC50 (adenosine A3 receptor) [nM]	IC50 (adenosine A1 receptor) [nM]
Cc1cc2nc(N[C@@H](C)c3ccccn3)nc(C(=O)N3CCCC3)c2s1 [Example Z244, (S)-(6-Methyl-2-((1-(pyridin-2-yl)ethyl)amino)thieno[3,2-d]pyrimidin-4-yl)(pyrrolidin-1-yl)methanone]	18.24	< 10	10 to 50	50 to 100	50 to 100
CO[C@@H]1CCN(C(=O)c2nc(N[C@@H](C)c3cncc(Cl)c3)nc3ccsc23)C1 [Example Z253, (2-(((S)-1-(5-Chloropyridin-3-yl)ethyl)amino)thieno[3,2-d]pyrimidin-4-yl)((R)-3-methoxypyrrolidin-1-yl)methanone]	10.26	10 to 50	100 to 500	> 500	> 500
CO[C@H]1CCN(C(=O)c2nc(N[C@@H](C)c3cncc(Cl)c3)nc3ccsc23)C1 [Example Z254, (2-(((S)-1-(5-Chloropyridin-3-yl)ethyl)amino)thieno[3,2-d]pyrimidin-4-yl)((S)-3-methoxypyrrolidin-1-yl)methanone]	9.38	10 to 50	100 to 500	> 500	> 500
CO[C@H]1CCN(C(=O)c2nc(N[C@@H](C)c3ccccn3)nc3ccsc23)C1 [Example Z255, ((S)-3-Methoxypyrrolidin-1-yl)(2-(((S)-1-(pyridin-2-yl)ethyl)amino)thieno[3,2-d]pyrimidin-4-yl)methanone]	1.81	10 to 50	10 to 50	> 500	> 500
C[C@H](Nc1nc(C(=O)N2CC[C@H](CO)C2)c2sccc2n1)c1cccnc1 [Example Z259, ((S)-3-(Hydroxymethyl)pyrrolidin-1-yl)(2-(((S)-1-(pyridin-3-yl)ethyl)amino)thieno[3,2-d]pyrimidin-4-yl)methanone]	31.95	10 to 50	100 to 500	> 500	> 500
C[C@H](Nc1nc(C(=O)N2CC[C@@H](CO)C2)c2sccc2n1)c1cccnc1 [Example Z260, ((R)-3-(Hydroxymethyl)pyrrolidin-1-yl)(2-(((S)-1-(pyridin-3-yl)ethyl)amino)thieno[3,2-d]pyrimidin-4-yl)methanone]	16.27	10 to 50	100 to 500	> 500	> 500
C[C@H](Nc1nc(C(=O)NCC(F)(F)F)c2sccc2n1)c1cncc(F)c1 [Example Z263, (S)-2-((1-(5-Fluoropyridin-3-yl)ethyl)amino)-N-(2,2,2-trifluoroethyl)thieno[3,2-d]pyrimidine-4-carboxamide]	9.48	10 to 50	100 to 500	> 500	> 500
COC1CN(C(=O)c2nc(N[C@@H](C)c3cncc(F)c3)nc3cc(C)sc23)C1 [Example Z268, (S)-(2-((1-(5-Fluoropyridin-3-yl)ethyl)amino)-6-methylthieno[3,2-d]pyrimidin-4-yl)(3-methoxyazetidin-1-yl)methanone]	57.63	< 10	50 to 100	50 to 100	50 to 100
C[C@H](Nc1nc(C(=O)N2CCC[C@@H]2C)c2sccc2n1)c1cncc(F)c1 [Example Z271, (2-(((S)-1-(5-Fluoropyridin-3-yl)ethyl)amino)thieno[3,2-d]pyrimidin-4-yl)((S)-2-methylpyrrolidin-1-yl)methanone]	9.24	10 to 50	100 to 500	> 500	> 500
C[C@H](Nc1nc(C(=O)N2CCC[C@H]2C)c2sccc2n1)c1cncc(F)c1 [Example Z272, (2-(((S)-1-(5-Fluoropyridin-3-yl)ethyl)amino)thieno[3,2-d]pyrimidin-4-yl)((R)-2-methylpyrrolidin-1-yl)methanone]	9.34	10 to 50	100 to 500	> 500	> 500
